Test system: 3xTg-AD and WT mice
Test: Y-maze alternation task
Assay type: in vivo, mouse
Settings: 10 mg/kg i.p. 3 h prior
Experimental: The Y-maze apparatus consisted of three dark gray arms (42×4.8×20 cm). […] The total number of arm entries was recorded, as was the number of entries representing alternation behavior (i.e., sequential entry into all three arms). All four paws of the mouse had to enter an arm for it to count as an arm entry. Percentage spontaneous alternation = (number of alternations)/(total arm entries – 2). […] A total number of 20 WT and 11 AD mice were used in the Y-maze task.

Cl.Nc1cc(C(F)(F)F)cc2c1SSSSS2 [TC-2153, 8-(trifluoromethyl)-1,2,3,4,5-benzopentathiepin-6-amine hydrochloride]
Y-maze arm entries (general motor activity): no significant change in arm entries
Y-maze percentage spontaneous alternation, WT mice (WT mice, vehicle 74.98±2.19): 73.45±3.19

Source: article PMC4122355, “Inhibitor of the Tyrosine Phosphatase STEP Reverses Cognitive Deficits in a Mouse Model of Alzheimer's Disease” (PLoS Biology, 2014)
